Measured values published in publication PMC8920929 (The Journal of Biological Chemistry, 2022).
Where a chain is given by its changes, count along the chain named. Each block holds one compound with its values, some of them ahead of it.

Columns and labels:
human TRPV3 = target: T1, human TRPV3 (Homo sapiens, UniProt Q8NET8); test: Inside-out single channel recordings of TRPV3; type: biochemical
T1 sequence (Q8NET8 1-790): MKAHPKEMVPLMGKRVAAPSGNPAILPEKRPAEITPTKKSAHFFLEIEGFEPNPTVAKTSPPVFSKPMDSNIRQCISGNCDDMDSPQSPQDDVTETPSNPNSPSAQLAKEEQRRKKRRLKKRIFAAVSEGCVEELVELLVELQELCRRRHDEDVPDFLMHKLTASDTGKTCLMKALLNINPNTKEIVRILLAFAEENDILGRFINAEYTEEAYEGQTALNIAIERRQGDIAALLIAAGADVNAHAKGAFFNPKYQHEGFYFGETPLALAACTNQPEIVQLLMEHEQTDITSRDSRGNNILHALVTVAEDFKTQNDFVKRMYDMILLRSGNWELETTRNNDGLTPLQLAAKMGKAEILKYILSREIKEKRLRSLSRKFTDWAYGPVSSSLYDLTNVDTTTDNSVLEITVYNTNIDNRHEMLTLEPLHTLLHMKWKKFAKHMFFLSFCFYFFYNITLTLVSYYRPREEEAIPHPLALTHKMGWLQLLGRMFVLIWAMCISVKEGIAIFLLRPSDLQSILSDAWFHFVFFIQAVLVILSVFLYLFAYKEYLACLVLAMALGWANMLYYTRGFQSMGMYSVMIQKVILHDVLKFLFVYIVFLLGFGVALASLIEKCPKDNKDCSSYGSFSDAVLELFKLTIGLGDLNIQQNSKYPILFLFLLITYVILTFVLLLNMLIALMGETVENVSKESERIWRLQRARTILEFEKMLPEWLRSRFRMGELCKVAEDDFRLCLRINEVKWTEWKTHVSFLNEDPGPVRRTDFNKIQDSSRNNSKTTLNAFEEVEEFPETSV

TRPV3-I505A = target: T2, TRPV3-I505A (Homo sapiens, UniProt Q8NET8, I505A); test: Whole-cell and single-channel recordings of the TRPV3-I505A mutant; type: cell-based; settings: carvacrol 0.3-3.0 mM or 50 μM 2-APB
T2 sequence (Q8NET8 1-790 I505A): T1 sequence (Q8NET8 1-790) with I505A

TRPV3-L508A = target: T3, TRPV3-L508A (Homo sapiens, UniProt Q8NET8, L508A); test: Whole-cell and single-channel recordings of the TRPV3-L508A mutant; type: cell-based; settings: carvacrol 0.3-3.0 mM or 50 μM 2-APB
T3 sequence (Q8NET8 1-790 L508A): T1 sequence (Q8NET8 1-790) with L508A

TRPV3-L508F = target: T4, TRPV3-L508F (Homo sapiens, UniProt Q8NET8, L508F); test: Whole-cell and single-channel recordings of the TRPV3-L508F mutant; type: cell-based; settings: carvacrol 0.3-3.0 mM or 50 μM 2-APB
T4 sequence (Q8NET8 1-790 L508F): T1 sequence (Q8NET8 1-790) with L508F

TRPV3-F524A = TRPV3-F524A (Homo sapiens, UniProt Q8NET8, F524A); settings: 50 μM 2-APB; the mutant also lost surface expression
TRPV3 [1] = settings: ref [38]; cited from earlier work
TRPV3 [2] = settings: ref [30], cited from earlier work; for TRPV3 currents induced: in comparison with carvacrol
mice = settings: ref [35]; cited from earlier work
keratinocytes = settings: ref [35]; cited from earlier work
[3] = +80 mV, carvacrol 300 μM or 2-APB 50 μM alone
[4] = FB 50 μM in the presence of 50 μM 2-APB, +80 mV
[5] = FB 50 μM in the presence of 300 μM carvacrol, +80 mV

TRPV3-F524A, sequence (Q8NET8 whole entry F524A): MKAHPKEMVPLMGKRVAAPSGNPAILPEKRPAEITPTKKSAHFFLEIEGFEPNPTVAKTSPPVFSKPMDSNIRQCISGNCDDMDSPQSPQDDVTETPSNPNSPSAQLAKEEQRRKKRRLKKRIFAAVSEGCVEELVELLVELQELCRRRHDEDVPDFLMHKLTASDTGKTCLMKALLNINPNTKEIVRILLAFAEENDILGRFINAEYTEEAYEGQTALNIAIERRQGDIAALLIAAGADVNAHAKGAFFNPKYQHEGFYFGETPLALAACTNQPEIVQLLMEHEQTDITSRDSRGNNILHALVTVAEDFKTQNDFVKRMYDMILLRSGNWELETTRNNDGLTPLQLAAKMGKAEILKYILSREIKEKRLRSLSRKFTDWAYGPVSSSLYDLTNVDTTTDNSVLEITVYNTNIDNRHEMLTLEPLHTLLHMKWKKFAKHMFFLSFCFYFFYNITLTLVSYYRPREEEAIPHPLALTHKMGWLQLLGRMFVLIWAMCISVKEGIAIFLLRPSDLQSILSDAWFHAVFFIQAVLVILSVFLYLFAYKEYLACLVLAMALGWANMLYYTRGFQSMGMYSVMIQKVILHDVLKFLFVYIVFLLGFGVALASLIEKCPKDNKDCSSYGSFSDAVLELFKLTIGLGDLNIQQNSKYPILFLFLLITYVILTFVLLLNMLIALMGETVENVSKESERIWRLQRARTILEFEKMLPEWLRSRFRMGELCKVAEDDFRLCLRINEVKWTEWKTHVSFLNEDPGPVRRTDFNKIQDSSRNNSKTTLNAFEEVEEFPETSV

single-channel open frequency (Freq) (human TRPV3; [3]): 65.48 ± 12.31 Hz
single-channel open probability (Po) (human TRPV3; [3]): 0.77 ± 0.07
unitary conductance of TRPV3 single channels (human TRPV3; inside-out patches, -80 mV to +80 mV, carvacrol 300 μM, 2-APB 50 μM, n = 4): 173.2 ± 5.3 pS
activation of TRPV3 I505A mutant channel (TRPV3-I505A): intact activation
activation of TRPV3 L508F mutant channel (TRPV3-L508F): but not 2-APB
sensitivity of TRPV3 F524A mutant channel (TRPV3-F524A): reduced sensitivity
Compound: NCCOB(c1ccccc1)c1ccccc1 [2-APB, 2-aminoethyl diphenylborinate]
activation of TRPV3 L508A mutant channel (TRPV3-L508A): still able to activate the mutant channel
unitary conductance, 2-APB in the absence of dyclonine (TRPV3 [1]): 163.6 ± 6.4 pS
unitary conductance, 2-APB in the presence of TRPV3 inhibitor dyclonine (TRPV3 [1]): 179.2 ± 5.5 pS

Compound: CC12CCC(CC1=O)C2(C)C (stereo not drawn) [camphor]
EC50 (TRPV3 [2]; read-out: EC50, activation of TRPV3, [32]): ~6 mM

Compound: Cc1ccc(C(C)C)cc1 [p-Cymene]
TRPV3 currents induced (TRPV3 [2]): small or negligible

Compound: Cc1ccc(C)c(O)c1 [p-Xylenol]
TRPV3 currents induced (TRPV3 [2]): small or negligible

Po after addition of inhibitor, 2-APB-activated channels (human TRPV3; [4]): 0.12 ± 0.08
open Freq after addition of inhibitor, 2-APB-activated channels (human TRPV3; [4]): 20.07 ± 1.77 Hz
Po after addition of inhibitor, carvacrol-activated channels (human TRPV3; [5]): 0.12 ± 0.03
open Freq after addition of inhibitor, carvacrol-activated channels (human TRPV3; [5]): 21.78 ± 2.59 Hz
Compound: forsythoside B [FB]
effect on carvacrol-induced pruritus (mice): attenuates pruritus
effect on carvacrol-induced cytotoxicity of keratinocytes (keratinocytes): attenuates
